From patent US20230103791A1 (GLAXOSMITHKLINE INTELLECTUAL PROPERTY DEVELOPMENT LIMITED, priority 2019, published 2023)

Molecular target: T1, human Nav1.8 (Homo sapiens, UniProt Q9Y5Y9)
T1 construct: expressed in transfected cells; host or cells: HEK293 (HEK293-Nav1.8)
Test: Nav1.8 sodium channels assay, QPatch 48 HTX electrophysiology in HEK293-Nav1.8 cells
Assay type: cell-based
Details: at least one set of experimental runs; read-out: average pIC50 value against Nav1.8 (converted)
Experimental: Human embryonic kidney […] cells (HEK293) expressing human Nav1.8, human Navβ1 and human TREK1 (HEK293-Nav1.8) were grown at 37° C., 5% CO2 in 150 cm^2 flasks. HEK293-Nav1.8 were passaged every 2-3 days when confluency reached 80-90% in to T175 cell culture flasks.
Pharmacological assessment of the invention was performed using HEK293-Nav1.8 in combination with an assay developed on the QPatch 48 HTX electrophysiological system. HEK293-Nav1.8 were prepared on the day of use by removing culture media, washing in DPBS, adding Accutase (2 ml to cover the surface, aspirate 1 ml then 1.5 min at 37° C.) followed by addition of CHO-SFM II to stop the enzyme digestion and in order to obtain a suspension of 3×10^6 cell/mL.
The invention was prepared in an extracellular solution of the following composition (in mM) NaCl 145, KCl 4, CaCl2 2, MgCl 2, HEPES 1, Glucose 10, pH 7.4 with NaOH Osmolality 300 mOsM/L. The intracellular solution was used of the following composition (in mM) CsF 115, CsCl 20, NaCl 5, EGTA 10, HEPES 10, Sucrose 20, pH 7.2 with CsOH Osmolality 310 mOsm/L.
Utilizing the voltage-clamp mode in the QPatch 48 HTX system a half inactivation state voltage protocol (V1/2) was used to determine pharmacological activity of the invention at Nav1.8 ion channels. A V1/2 protocol was utilized with the following voltage steps: a holding voltage of −100 mV was established followed by a 20 ms voltage step to 0 mV (P1), followed by an inactivating voltage step at −46 mV for 8 seconds, followed by a step to −100 mV for 20 ms, before a 20 ms step to 0 mV (P2) before returning to the holding voltage of −100 mV. This voltage protocol was repeated at a frequency of 0.07 Hz., current magnitude was quantified at the P2 step throughout the recording. Inhibition of the measured current amplitude with the invention was analyzed by fitting a 6-8 point dose-response curve allowing determination of the fifty percent inhibition concentration (IC50). Within the QPatch HTX software, P2 current was normalized according to measurements made at baseline after compound and after positive reference compound and fit to the following equation: […]
To assess current run-down over the course of the experiment vehicle-only wells were utilized and the normalized current with vehicle-only (n.IVEH) was determined. To correct the compound response for run-down, the currents were correct according the following formula: […]
Compounds of the invention are tested for activity against Nav1. 8 sodium channels in the above assay.

T1 sequence (Q9Y5Y9 whole entry): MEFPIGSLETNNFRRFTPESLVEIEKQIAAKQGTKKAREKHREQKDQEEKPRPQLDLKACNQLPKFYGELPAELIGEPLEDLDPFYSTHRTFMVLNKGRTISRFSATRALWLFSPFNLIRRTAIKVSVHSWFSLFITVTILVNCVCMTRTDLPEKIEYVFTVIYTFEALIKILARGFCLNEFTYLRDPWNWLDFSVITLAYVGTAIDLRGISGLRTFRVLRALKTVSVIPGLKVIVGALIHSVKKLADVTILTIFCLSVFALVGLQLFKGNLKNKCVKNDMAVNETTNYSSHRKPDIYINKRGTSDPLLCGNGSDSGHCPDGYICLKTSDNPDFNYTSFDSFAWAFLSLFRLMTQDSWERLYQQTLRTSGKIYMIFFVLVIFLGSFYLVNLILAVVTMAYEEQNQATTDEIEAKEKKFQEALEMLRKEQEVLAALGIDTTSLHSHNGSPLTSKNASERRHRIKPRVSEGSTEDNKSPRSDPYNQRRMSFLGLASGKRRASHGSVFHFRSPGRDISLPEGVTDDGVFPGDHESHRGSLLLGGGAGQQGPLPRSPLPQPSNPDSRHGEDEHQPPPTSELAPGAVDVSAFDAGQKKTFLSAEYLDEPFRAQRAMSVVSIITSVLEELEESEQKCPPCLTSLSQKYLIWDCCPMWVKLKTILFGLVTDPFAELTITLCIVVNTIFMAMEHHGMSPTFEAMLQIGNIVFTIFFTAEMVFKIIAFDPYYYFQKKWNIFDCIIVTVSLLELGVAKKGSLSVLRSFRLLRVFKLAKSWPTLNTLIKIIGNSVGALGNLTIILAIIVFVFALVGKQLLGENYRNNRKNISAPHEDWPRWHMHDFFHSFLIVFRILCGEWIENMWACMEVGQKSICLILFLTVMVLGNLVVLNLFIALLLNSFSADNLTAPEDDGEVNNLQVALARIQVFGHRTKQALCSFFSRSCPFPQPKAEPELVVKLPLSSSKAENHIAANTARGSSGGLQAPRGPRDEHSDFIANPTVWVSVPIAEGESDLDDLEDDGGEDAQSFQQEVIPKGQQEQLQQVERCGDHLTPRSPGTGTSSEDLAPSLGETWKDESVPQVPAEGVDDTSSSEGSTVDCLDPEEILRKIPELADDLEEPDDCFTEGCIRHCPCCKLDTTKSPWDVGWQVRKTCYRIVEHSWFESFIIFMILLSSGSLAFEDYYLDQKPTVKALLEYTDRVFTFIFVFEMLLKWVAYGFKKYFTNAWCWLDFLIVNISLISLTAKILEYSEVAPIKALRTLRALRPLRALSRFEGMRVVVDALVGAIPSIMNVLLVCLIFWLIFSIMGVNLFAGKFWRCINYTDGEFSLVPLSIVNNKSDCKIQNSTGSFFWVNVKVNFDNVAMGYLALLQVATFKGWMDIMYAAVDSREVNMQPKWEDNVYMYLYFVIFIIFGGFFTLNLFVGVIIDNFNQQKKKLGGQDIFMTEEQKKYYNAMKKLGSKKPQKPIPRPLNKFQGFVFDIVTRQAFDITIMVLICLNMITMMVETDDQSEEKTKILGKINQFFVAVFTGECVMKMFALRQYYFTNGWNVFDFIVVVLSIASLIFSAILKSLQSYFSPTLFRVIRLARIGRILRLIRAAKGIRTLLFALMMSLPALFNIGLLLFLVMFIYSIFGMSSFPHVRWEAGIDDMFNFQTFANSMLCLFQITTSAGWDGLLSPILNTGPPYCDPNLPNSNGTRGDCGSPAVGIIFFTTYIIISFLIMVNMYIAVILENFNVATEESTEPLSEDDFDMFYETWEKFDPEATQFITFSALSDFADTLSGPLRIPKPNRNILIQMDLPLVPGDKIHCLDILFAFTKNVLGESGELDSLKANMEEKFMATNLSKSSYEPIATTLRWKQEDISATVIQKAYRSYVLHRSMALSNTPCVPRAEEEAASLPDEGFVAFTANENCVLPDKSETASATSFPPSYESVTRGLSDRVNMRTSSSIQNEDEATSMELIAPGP
T1 sequence (Q07699 19-218 partner): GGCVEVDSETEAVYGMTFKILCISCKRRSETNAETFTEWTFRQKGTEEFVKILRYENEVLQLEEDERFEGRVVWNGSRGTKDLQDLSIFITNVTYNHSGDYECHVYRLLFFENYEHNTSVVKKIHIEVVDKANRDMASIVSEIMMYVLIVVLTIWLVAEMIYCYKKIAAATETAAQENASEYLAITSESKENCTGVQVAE

| IC50 [nM] | Structure (SMILES) |
| --- | --- |
| 794 to 7940 | Cc1[nH]c(=O)ccc1N1CN([C@H]2CC[C@H](F)C2)c2cc(C(F)(F)F)ccc2C1=O (racemic) [Example 208, 1-((1S,3S)-3-fluorocyclopentyl)-3-(2-methyl-6-oxo-1,6-dihydropyridin-3-yl)-7-(trifluoromethyl)-2,3-dihydroquinazolin-4(1H)-one and 1-((1R,3R)-3-fluorocyclopentyl)-3-(2-methyl-6-oxo-1,6-dihydropyridin-3-yl)-7-(trifluoromethyl)-2.3-dihydroquinazolin-4(1H)-one] |
| ≤ 100 | Cc1[nH]c(=O)ccc1N1CN([C@@H]2CCCC[C@H]2C)c2cc(C(F)(F)F)ccc2C1=O (racemic) [Example 278, Mixture of 3-(2-Methyl-6-oxo-1,6-dihydropyridin-3-yl)-1-((1R,2R)-2-methylcyclohexyl)-7-(trifluoromethyl)-2,3-dihydroquinazolin-4(1H)-one and 3-(2-Methyl-6-oxo-1,6-dihydropyridin-3-yl)-1-((1S,2S)-2-methylcyclohexyl)-7-(trifluoromethyl)-2,3-dihydroquinazolin-4(1H)-one] |
| 794 to 7940 | Cc1cc(F)ccc1N1c2cc(C(F)(F)F)ccc2C(=O)N(c2ccc(=O)[nH]c2)C1C (single isomer, unassigned) [Example 285] |
| 794 to 7940 | Cc1cc(=O)[nH]c(C)c1N1CN(c2ccc(F)cc2C(C)C)c2cc(C(F)(F)F)ccc2C1=O (single isomer, unassigned) [Example 289, 3-(2,4-Dimethyl-6-oxo-1,6-dihydropyridin-3-yl)-1-(4-fluoro-2-isopropylphenyl)-7-(trifluoromethyl)-2,3-dihydroquinazolin-4(1H)-one] |
| 126 to 631 | Cc1cc(=O)[nH]c(C)c1N1CN(c2ccc(F)cc2C(C)C)c2cc(C(F)(F)F)ccc2C1=O (single isomer, unassigned) [Example 290, 3-(2,4-dimethyl-6-oxo-1,6-dihydropyridin-3-yl)-1-(4-fluoro-2-isopropylphenyl)-7-(trifluoromethyl)-2,3-dihydroquinazolin-4(1H)-one] |
| 794 to 7940 | Cc1cc(=O)[nH]c(C)c1N1CN(c2ccc(F)cc2C(C)C)c2ccc(Cl)cc2C1=O (single isomer, unassigned) [Example 291, 6-Chloro-3-(2,4-dimethyl-6-oxo-1,6-dihydropyridin-3-yl)-1-(4-fluoro-2-isopropylphenyl)-2,3-dihydroquinazolin-4(1H)-one] |
| 126 to 631 | Cc1cc(=O)[nH]c(C)c1N1CN(c2ccc(F)cc2C(C)C)c2ccc(Cl)cc2C1=O (single isomer, unassigned) [Example 292, 6-Chloro-3-(2,4-dimethyl-6-oxo-1,6-dihydropyridin-3-yl)-1-(4-fluoro-2-isopropylphenyl)-2,3-dihydroquinazolin-4(1H)-one] |
| 126 to 631 | Cc1[nH]c(=O)ccc1N1CN(c2ccc(F)cc2C(C)(C)C)c2ccc(Cl)cc2C1=O (single isomer, unassigned) [Example 293, 1-(2-(tert-Butyl)-4-fluorophenyl)-6-chloro-3-(2-methyl-6-oxo-1,6-dihydropyridin-3-yl)-2,3-dihydroquinazolin-4(1H)-one] |
| ≤ 100 | Cc1[nH]c(=O)ccc1N1CN(c2ccc(F)cc2C(C)(C)C)c2ccc(Cl)cc2C1=O (single isomer, unassigned) [Example 294, 1-(2-(tert-Butyl)-4-fluorophenyl)-6-chloro-3-(2-methyl-6-oxo-1,6-dihydropyridin-3-yl)-2,3-dihydroquinazolin-4(1H)-one] |
| 794 to 7940 | Cc1[nH]c(=O)ccc1N1CN(c2ccc(F)cc2C(C)(C)C)c2cc(C(F)(F)F)ccc2C1=O (single isomer, unassigned) [Example 295, 1-(2-(tert-butyl)-4-fluorophenyl)-3-(2-methyl-6-oxo-1,6-dihydropyridin-3-yl)-7-(trifluoromethyl)-2,3-dihydroquinazolin-4(1H)-one] |
| ≤ 100 | Cc1[nH]c(=O)ccc1N1CN(c2ccc(F)cc2C(C)(C)C)c2cc(C(F)(F)F)ccc2C1=O (single isomer, unassigned) [Example 296, 1-(2-(tert-butyl)-4-fluorophenyl)-3-(2-methyl-6-oxo-1,6-dihydropyridin-3-yl)-7-(trifluoromethyl)-2,3-dihydroquinazolin-4(1H)-one] |
| 794 to 7940 | Cc1cc(F)ccc1N1CN(c2ccc(=O)n(C)c2)C(=O)c2ccc(C(F)(F)F)cc21 [Example 1] |
| 794 to 7940 | Cc1cc(F)ccc1N1CN(c2cccnc2)C(=O)c2ccc(C(F)(F)F)cc21 [Example 2] |
| 794 to 7940 | COc1ncc(N2CN(c3ccc(F)cc3C)c3cc(C(F)(F)F)ccc3C2=O)cn1 [Example 3, 1-(4-fluoro-2-methylphenyl)-3-(2-methoxypyrimidin-5-yl)-7-(trifluoromethyl)-2,3-dihydroquinazolin-4(1H)-one] |
| 126 to 631 | Cc1cc(F)ccc1N1CN(c2ccnn2C)C(=O)c2cc(C(F)(F)F)ccc21 [Example 4, 1-(4-fluoro-2-methylphenyl)-3-(1-methyl-1H-pyrazol-5-yl)-6-(trifluoromethyl)-2,3-dihydroquinazolin-4(1H)-one] |
| 794 to 7940 | CC(=O)Nc1cccc(N2CN(c3ccc(F)cc3C)c3cc(C(F)(F)F)ccc3C2=O)c1 [Example 5, N-(3-(1-(4-fluoro-2-methylphenyl)-4-oxo-7-(trifluoromethyl)-1,4-dihydroquinazolin-3(2H)-yl)phenyl)aceta-mide] |
| 794 to 7940 | CC(=O)Nc1ccc(N2CN(c3ccc(F)cc3C)c3cc(C(F)(F)F)ccc3C2=O)cc1 [Example 6, N-(4-(1-(4-fluoro-2-methylphenyl)-4-oxo-7-(trifluoromethyl)-1,4-dihydroquinazolin-3(2H)-yl)phenyl)aceta-mide] |
| 794 to 7940 | Cc1cc(F)ccc1N1CN(c2ccc(C(N)=O)nc2)C(=O)c2c1ccc(Cl)c2F [Example 7, 5-(6-chloro-5-fluoro-1-(4-fluoro-2-methylphenyl)-4-oxo-1,4-dihydroquinazolin-3(2H)-yl)picolinamide] |
| 794 to 7940 | Cc1cc(F)ccc1N1CN(c2ccnc(C(N)=O)c2)C(=O)c2c1ccc(Cl)c2F [Example 8, 4-(6-chloro-5-fluoro-1-(4-fluoro-2-methylphenyl)-4-oxo-1,4-dihydroquinazolin-3(2H)-yl)picolinamide] |
| 794 to 7940 | COc1ccc(N2CN(c3ccc(F)cc3Br)c3ccc(C(F)(F)F)cc3C2=O)c(C)n1 [Example 9, 1-(2-bromo-4-fluorophenyl)-3-(6-methoxy-2-methylpyridin-3-yl)-6-(trifluoromethyl)-2,3-dihydroquinazolin-4(1H)-one] |
| 794 to 7940 | COc1ccc(N2CN(c3ccc(F)cc3C)c3cc(C(F)(F)F)ccc3C2=O)cn1 [Example 10, 1-(4-fluoro-2-methylphenyl)-3-(6-methoxypyridin-3-yl)-7-(trifluoromethyl)-2,3-dihydroquinazolin-4(1H)-one] |
| 126 to 631 | Cc1cnccc1N1CN(c2ccc(OC(F)(F)F)cc2C)c2cc(F)c(Cl)cc2C1=O [Example 11, 6-chloro-7-fluoro-1-(2-methyl-4-(trifluoromethoxy)phenyl)-3-(3-methylpyridin-4-yl)-2,3-dihydroquinazolin-4(1H)-one] |
| 126 to 631 | CCc1cc(F)ccc1N1CN(c2ccncc2C)C(=O)c2cc(Cl)c(F)cc21 [Example 12, 6-chloro-1-(2-ethyl-4-fluorophenyl)-7-fluoro-3-(3-methylpyridin-4-yl)-2,3-dihydroquinazolin-4(1H)-one] |
| 794 to 7940 | Cc1cc(F)ccc1N1CN(c2ccc(S(C)(=O)=O)cc2)C(=O)c2ccc(C(F)(F)F)cc21 [Example 13, 1-(4-fluoro-2-methylphenyl)-3-(4-(methylsulfonyl)phen-yl)-7-(trifluoromethyl)-2,3-dihydroquinazolin-4(1H)-one] |
| 794 to 7940 | Cc1cc(F)ccc1N1CN(c2cccc(S(C)(=O)=O)c2)C(=O)c2ccc(C(F)(F)F)cc21 [Example 14, 1-(4-fluoro-2-methylphenyl)-3-(3-(methylsulfonyl)phen-yl)-7-(trifluoromethyl)-2,3-dihydroquinazolin-4(1H)-one] |
| 794 to 7940 | Cc1cc(F)ccc1N1CN(C2CCS(=O)(=O)C2)C(=O)c2cc(C(F)(F)F)ccc21 (centres unmarked) [Example 15, 3-(1,1-dioxidotetrahydro-thiophen-3-yl)-1-(4-fluoro-2-methylphenyl)-6-(trifluoromethyl)-2,3-dihydroquinazolin-4(1H)-one] |
